Laboratory results taken from PMC9732253, “Inhibition of the Phosphatidylinositol-3 Kinase Pathway Using Bimiralisib in Loss-of-Function NOTCH1-Mutant Head and Neck Cancer” (The Oncologist, 2022).
“And” between values parts separate entries of the source, which are not always exact repeats. Equal values may be shown once.

How the values were obtained:
NOTCH1-mutant HNSCC [1] = assay: Phase II single-arm trial, tumor response by RECIST 1.1 and survival; type: in vivo, human; conditions: for Median OS / Median PFS: all 8 patients; for Median PFS: 95% CI 39-199 days
Excerpt: Adults with an Eastern Cooperative Oncology Group performance status of ≤2, measurable disease according to Response Evaluation Criteria in Solid Tumors (RECIST) version 1.1,[1] and histologically confirmed recurrent or metastatic (R/M) HNSCC for which no standard curative or life-prolonging therapy was available were eligible. All patients had already received platinum chemotherapy and α-PD1 immunotherapy unless unable to tolerate them. […] Safety was continuously monitored. Demographic and clinical characteristics were summarized using univariate statistics, including mean, median, and standard deviation or frequency and percentage. Objective response rate was summarized by frequency and percentage with a 2-sided 95% […] CI.[5] Duration of response, PFS, and overall survival were analyzed using the Kaplan-Meier method.[6] All statistical analyses were performed using R statistical software (version 3.6.3, R Core Team, 2020). Survival modeling was performed using the “survival” package.[7] […] Time to response was defined as the time from first study drug administration to the first documentation of response (complete or partial). Duration of response was defined as the time from the date of the first confirmed response to the first documentation of disease progression. PFS was defined as the time from first study drug administration to disease progression or death due to any cause. Overall survival was defined as the time from first study drug administration to death due to any cause.

NOTCH1-mutant HNSCC [2] = conditions: one heavily pretreated patient with NOTCH1-mutant HNSCC, thoracic metastases; cited from earlier work
[3] = cited from earlier work
mTOR = conditions: cited from earlier work
other protein kinases = test system: other protein kinases; parameters: method as in PMID 28829592; conditions: biochemical assays; cited from earlier work
[4] = test system: pathway targets in tumor tissue; parameters: method as in PMID 29660598; conditions: therapeutic doses; cited from earlier work
PI3Kα = conditions: cited from earlier work
PI3Kβ = conditions: compared with PI3Kα and mTOR; cited from earlier work
[5] = number (%) of 6 patients evaluated for efficacy, RECIST 1.1

Nc1cc(C(F)(F)F)c(-c2nc(N3CCOCC3)nc(N3CCOCC3)n2)cn1 [Bimiralisib, 5-(4,6-dimorpholino-1,3,5-triazin-2-yl)-4-(trifluoromethyl)pyridin-2-amine]
Response duration (NOTCH1-mutant HNSCC [1]; 6 evaluable patients): 111 days | Objective response rate (NOTCH1-mutant HNSCC [1]; 6 evaluable patients (1/6), RECIST 1.1, 140 mg orally on 2 consecutive days weekly, 95% CI 1-58%): 17% | Median TTP (NOTCH1-mutant HNSCC [1]; CI: 83-inf): 167 days (CI: 83-inf) | Median OS (NOTCH1-mutant HNSCC [1]): 7 months | Median PFS (NOTCH1-mutant HNSCC [1]): 147 days (CI: 39-199) | Median PFS (NOTCH1-mutant HNSCC [1]; listed as bimiralisib): 147 days | Median OS (NOTCH1-mutant HNSCC [1]; 95% CI 39 days-infinity): 215 days (CI: 39-inf) | Median OS (NOTCH1-mutant HNSCC [1]; 95% CI 39 days-infinity, listed as bimiralisib): 215 days | Response assessment, CR (NOTCH1-mutant HNSCC [1]; [5]): 0 (0%) | Response assessment, PR (NOTCH1-mutant HNSCC [1]; [5]): 1 (17%) | Reduction in the target lesion size (NOTCH1-mutant HNSCC [1]; one patient with confirmed partial response): 49% | Day of progressive disease (NOTCH1-mutant HNSCC [1]; one patient with progressive disease): 83 | Reduction in the target lesion size compared with baseline, final computed tomography scan (NOTCH1-mutant HNSCC [1]; patient with confirmed partial response, in study until day 157): 45% | Day of disease progression (NOTCH1-mutant HNSCC [1]; three patients with confirmed stable disease, one value each): 91 days and 138 days and 167 days | Duration of partial response (NOTCH1-mutant HNSCC [2]): 9 months | Time of maximum plasma concentration, latest ([3]; after oral administration): ≤ 24 h | Highest Cmax ([3]; dose of 150 mg, ref 11 (Wicki et al)): 998 ng/mL | Terminal half-life ([3]; in vivo): 40 h | Time of maximum plasma concentration after a dose ([3]; most humans, oral): 1 to 2 h | Inhibition of mTOR (mTOR): potently inhibits | Inhibition of other protein kinases (other protein kinases): does not significantly inhibit | Change of pathway targets in tumor tissue [4]: marked decreases | Inhibition of PI3Kα (PI3Kα): potently inhibits | Potency against PI3Kβ (PI3Kβ): less potency
